Measurements reported in patent US12193456B2, “Early life nutrition” (DSM IP ASSETS B.V., priority 2019, dated 2025).

Columns and labels:
[1] = Calf physiological parameters (bodyweight, average daily gain); format: in vivo, calves (Holstein, Montbéliarde, Holstein×Montbéliarde); settings: for effect on host animal performance (in words): early life treatment, birth to week 14
Protocol: (§1) At birth 18 female Holstein (n=12), Montbéliarde (n=4) and Holstein×Montbéliarde (n=2) calves were randomly assigned to either a treatment group (3 mg 3-NOP (active)/kg BW) or control group (placebo supplement i.e. without 3-NOP but with silica and propylene glycol). 3-NOP was supplemented in the form of a 3-NOP powdered formulation (10 wt.-% of 3-NOP admixed with silica and propylene glycol) such that breed distribution and birthweight were balanced across groups. Treatment was administered daily from birth until three weeks post-weaning (week 14) (admixed in a small volume of water and delivered by an oral gavage). Calves were weighed weekly. Milk and concentrate intake prior to weaning was recorded using automated feeders. Animals were group housed in a single pen following weaning. Samples of rumen liquid were collected at week 1, 4, 11, 14, 23 and 60 weeks of life and DNA from these samples of rumen liquid content were extracted and subjected to Illumina MiSeq sequencing. Methane emissions from the calves were measured using the GreenFeed system (C-Lock, Rapid City, SD USA) from weaning at week 11 to week 23 and later from week 56 to 60 of life.

calves = assay: Methane emissions from calves measured using the GreenFeed system after early-life supplementation; format: in vivo, calves (Holstein, Montbéliarde, Holstein×Montbéliarde); settings: for methane emissions: n = 10
From the text: The methane emissions respectively methane reductions as referred to herein can be measured in individual animals in metabolic chambers by methods known in the art (Grainger et al., 2007 J. Dairy Science; 90: 2755-2766). Moreover, it can also be assessed at barn level by an emerging technology using laser beam (McGinn et al., 2009, Journal of Environ-mental Quality; 38: 1796-1802). Alternatively, methane produced by a ruminant can also be assessed with the GreenFeed system (C-Lock, Rapid City, SD USA), which method is preferred.
as §1

## O=[N+]([O-])OCCCO [3-nitrooxypropanol, 3-Nitrooxypropanol]
[1]; age 0 weeks, treatment group n = 10
  Bodyweight (BW) of calves: 41.6 kg
[1]; age 11 weeks, treatment group n = 10
  Bodyweight (BW) of calves: 102.2 kg
[1]; age 14 weeks, treatment group n = 10
  Bodyweight (BW) of calves: 119.5 kg
[1]; age 17 weeks, treatment group n = 10
  Bodyweight (BW) of calves: 134.9 kg
[1]; age 20 weeks, treatment group n = 10
  Bodyweight (BW) of calves: 151.8 kg
[1]; age 23 weeks, treatment group n = 10
  Bodyweight (BW) of calves: 189.5 kg
[1]; age 56 to 60 weeks, treatment group n = 10
  Bodyweight (BW) of calves: 339 kg
[1]
  effect on host animal performance (in words): no detrimental effects
[1]; listed as 3-NOP
  effect on host animal performance (in words): no adverse effect on performance
[1]; from week 0 to 23 weeks of life, treatment group n = 10
  Average Daily Gain (ADG): 0.79 kg/day
calves; after 60 weeks of age, supplementation from birth until 14 weeks of age
  methane emissions of treated animals (in words): lower methane emissions
calves; age 11 weeks (weaning), during daily supplementation, 3 mg 3-NOP/kg BW oral gavage from birth
  methane emissions: 45.0 g/day
calves; age 14 weeks, end of daily supplementation, 3 mg 3-NOP/kg BW oral gavage from birth
  methane emissions: 63.4 g/day
calves; age 17 weeks, no supplementation (stopped week 14)
  methane emissions: 68.2 g/day
calves; age 20 weeks, no supplementation (stopped week 14)
  methane emissions: 88.9 g/day
calves; age 23 weeks, no supplementation (stopped week 14)
  methane emissions: 97.13 g/day
calves; age 56 to 60 weeks, no supplementation (stopped week 14)
  methane emissions: 193.0 g/day
calves; throughout the post-weaning period (week 11 to 23), vs control, P=0.03, treatment ceased three weeks post-weaning
  overall reduction in methane emissions (g CH4/d): 11.6%
calves; weeks 56 to 60 of life, vs control, P<0.05, no supplementation since week 14
  overall reduction in methane emissions: about 19%
